From paper PMC12259270, “Sensory neuron–expressed FGF13 controls nociceptive signaling in diabetic neuropathy models” (The Journal of Clinical Investigation, 2025)
“And” between values parts separate entries of the source, which are not always exact repeats. Equal entries are not always repeated. Residues, ends and D or L forms follow the SMILES beside them. *: point of attachment. Cbz = O=C(OCc1ccccc1)*; OtBu = CC(C)(C)O*

Tests used:
[1] = tested on: C57BL/6 mice; experiment: Capsaicin-induced mechanical hypersensitivity (von Frey); assay type: in vivo, mouse; parameters: LVF Mean / HVF Mean / MECHANICAL LVF / MECHANICAL HVF: unit not given here; conditions: Cap + Bup 7 mg/mL
Excerpt: (§1) FGF13 is a neuronal gene ubiquitously transcribed in DRG neuronal subtypes ([43]–[46]). To investigate neuronal subtype enrichment of the FGF13 transcript, we examined a gene panel including FGF13, SCN9A, and several marker genes in mouse single-cell transcriptomic data (Supplemental Figure 10) ([43]–[46]). […] Critically, putative silent nociceptors marked by somatostatin (SST), and the nicotinic cholinergic receptor α-3 subunit (CHRNA3) contribute to development of inflammatory mechanical hyperalgesia ([47]). […] We next determined if PW164 modulation of the FGF13/Nav1.7 complex could suppress nociceptive behaviors in WT mice. We tested whether intraplantar (i.pl.) injection (5 μL) of PW164 altered hind paw withdrawal in response to low or high intensity von Frey filament (LVF or HVF, respectively) mechanical stimulation (Figure 3A). […] Next, we evaluated PW164’s effect on mechanical and thermal hindpaw sensitivity in capsaicin-induced nociceptive hypersensitivity models. […] Next, we performed in vivo target validation in WT mice that received an intrathecal (i.t.) injection in L5 of AAV2-shFGF13 (6 μL, viral titers 1 × 10^12 vector genomes (vg)/mL); a control group received an equal number of AAV2-shCTRL particles (Figure 3C).
(§2) Experiments were performed on 6- to 12-week-old male C57BL/6 mice (The Jackson Laboratory, Bar Harbor, ME) housed in the AAALAC-accredited facility at the University of Texas Medical Branch. Mice were group-housed with up to 5 mice per cage on a 12-to-12-hour light–dark cycle and had access to water and food ad libitum. All protocols were approved by the Institutional Animal Care and Use Committee (IACUC) at the University of Texas Medical Branch and in accordance with the National Institutes of Health (NIH) guidelines.
(§3) PW164 and ZL192 were dissolved in DMSO and saline in a ratio of 1:10. 0.1% capsaicin (10% ethanol, 10% Tween-20 in saline; Sigma-Aldrich). All the compounds were injected at the center of the hind paw. The control group received a DMSO-saline mixture. […]
Bupivacaine was prepared from a 1:2 dilution with sterile 0.9% saline and locally injected in the center of the paw at 7 mg/ml.
(§4) AAV2 viral particles packaged by the University of North Carolina Gene Therapy Core Facility (viral titer ranging […]
(§5) Before intrathecal injections in the lumbar region, mice were maintained in an anesthetizing box with 2% isoflurane to induce unconsciousness. Six microliters of viral vector were gently injected into the CSF through a 30-gauge needle with a Hamilton syringe in the lumbar area between vertebrae L4 and L5 by gently gripping the iliac crest of the mouse and inserting the needle with an angle of 45°. The correct procedure was confirmed by the mouse’s tail reflexiv e flick.
(§6) Assessment of mechanical sensitivity
Mechanical sensitivity was assessed using von Frey filaments (VFF 0.1g and 1.0 g force) in mice that were either naïve or received intraplantar (i.p.) injection of capsaicin. VFFs were applied at the injection site (capsaicin or […]

[2] = tested on: C57BL/6 mice; experiment: Mechanical sensitivity (von Frey, LVF/HVF) after intraplantar injection, mice without capsaicin; assay type: in vivo, mouse; parameters: key to LVF Mean / HVF Mean: % withdrawals from 10 consecutive von Frey stimulations; conditions: Bup 7 mg/mL, without capsaicin
Protocol: as §2, §3, §6
Mechanical sensitivity was assessed using von Frey filaments (VFF 0.1g and 1.0 g force) in mice that were either naïve or received intraplantar (i.p.) injection of capsaicin. VFFs were applied at the injection site (capsaicin or drug unilateral intraderma l injection at the center of the hind paw using a 30 -G needle). VFF of 1.0 g force, which evokes a 40–60% withdrawal response in the naïve condition, was used to detect hyperalgesia, and VFF of 0.1 g […]
mechanical sensitivity was expressed as % withdrawals from 10 consecutive stimulations. […]

[3] = tested on: FGF13 and Nav1.7 colocalization in hIPSC-derived sensory neurons; experiment: Immunocytochemistry, FGF13 and Nav1.7 colocalization in RealDRG; assay type: cell-based, human; conditions: Capsaicin, N 39
Protocol: After treatment, coverslips containing hIPSC-derived sensory neurons were fixed with 4% PFA/4% sucrose for 15 minutes, permeabilized for 5 minutes using 0.1% Triton X-100 in PBS and blocked with 10% Normal Goat Serum (ThermoFisher Scientific) for 30 minutes. Cells were stained using primary antibodies ms IgG1 Nav1.7 […]
Tubulin (Abcam, catalog # ab18207; 1:2000) overnight at 4∘C in 3% BSA. Isotype specific secondary antibodies ms IgG1 Alexa 568 (Life Technologies, catalog # A-21124; 1:200), ms IgG2a Alexa 647 (Life Technologies, […]
applied for 2 hours. After washing, cell membranes were labeled using CellBrite Cytoplasmic Membrane Dye (Biotium) according to manufacturer directions. After final washing, coverslips were mounted using ProLong Gold Antifade Mountant (ThermoFisher). hIPSC-derived sensory neurons were fixed at day 14 in buffered formalin (10 wt%/vol%, Fisher Scientific 23-305-510) for 10 minutes, permeabilized in DPBS plus Triton X-100 (0.2 vol%/vol%, MilliporeSigma, T8787-100ML), blocked in DPBS plus bovine serum albumin (1 wt%/vol%, MilliporeSigma A3059-100G) and Tween-20 (0.1 vol% MilliporeSigma P1379) for 2 hours, and incubated with primary antibodies overnight. Cultures were washed twice with blocking solution and incubated 1 hour with secondary antibodies. 4′,6-diamidino-2-phenylindole dilactate (DAPI, Thermo Fisher D3571) was added for 10 minutes before washing three times in DPBS. Antibodies used include: TUJ1 (1:250, MilliporeSigma MAB1637), […]
and Alexa Fluor 555 Donkey anti-Rabbit (1:500, Thermo Fisher Scientific A-31572). Negative controls included

[4] = tested on: C57BL/6 mice; experiment: Capsaicin-induced thermal hypersensitivity (Hargreaves); assay type: in vivo, mouse; conditions: Figure 3 B lower block (Vehicle vs PW 164), individual animals 1-20
Excerpt: as §1, §2, §3, §4
as §5, with “flick. […]” for “flick.”

[5] = target: T1, FGF13 (protein used in surface plasmon resonance) (UniProt Q92913-2 1-192); experiment: SPR; cell-free; FGF13 with Nav1.7 CTD, no compound; conditions: both partners purified
T1 construct: Fibroblast growth factor 13; also called fibroblast growth factor 13
T1 sequence (looked up): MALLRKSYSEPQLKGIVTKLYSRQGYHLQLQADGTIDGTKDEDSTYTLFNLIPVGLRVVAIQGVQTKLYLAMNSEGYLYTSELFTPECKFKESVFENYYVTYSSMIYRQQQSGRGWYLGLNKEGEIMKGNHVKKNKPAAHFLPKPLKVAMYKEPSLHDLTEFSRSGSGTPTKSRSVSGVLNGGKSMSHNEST

## CCCCN1CCCCC1C(=O)Nc1c(C)cccc1C (racemic) [Bup]
[1]; Time (h) 0
  HVF Mean: 52
  LVF Mean: 0
[1]; Time (h) 0.5
  HVF Mean: 100
  LVF Mean: 66
[1]; Time (h) 0.75
  HVF Mean: 6
  LVF Mean: 0
[1]; Time (h) 1
  HVF Mean: 58
  LVF Mean: 0
[1]; Time (h) 1.5
  HVF Mean: 98
  LVF Mean: 22
[1]; Time (h) 2
  HVF Mean: 100
  LVF Mean: 52
[2]; Time (h) 0
  HVF Mean: 52
[2]; Time (h) 0.5
  HVF Mean: 8
[2]; Time (h) 1
  HVF Mean: 58
[2]; Time (h) 1.5
  HVF Mean: 54
[2]; Time (h) 2
  HVF Mean: 54

## COc1cc(CNC(=O)CCCC/C=C/C(C)C)ccc1O [Capsaicin]
[3]; Distance 7.1166 microns
  Figure S6C, Mean: 236.646
[3]; Distance 7.2484 microns
  Figure S6C, Mean: 412.139
[3]; Distance 7.3801 microns
  Figure S6C, Mean: 777.284
[3]; Distance 7.5119 microns
  Figure S6C, Mean: 1294.71
[3]; Distance 7.6437 microns
  Figure S6C, Mean: 1747.86
[3]; Distance 7.7755 microns
  Figure S6C, Mean: 1996.82
[3]; Distance 7.9073 microns
  Figure S6C, Mean: 2041.85
[3]; Distance 8.0391 microns
  Figure S6C, Mean: 2010.31
[3]; Distance 8.1709 microns
  Figure S6C, Mean: 1934.86
[3]; Distance 8.3027 microns
  Figure S6C, Mean: 1848.17
[3]; Distance 8.4344 microns
  Figure S6C, Mean: 1793.9
[3]; Distance 8.5662 microns
  Figure S6C, Mean: 1740.61
[3]; Distance 8.698 microns
  Figure S6C, Mean: 1651.29
[3]; Distance 8.8298 microns
  Figure S6C, Mean: 1564.27
[3]; Distance 8.9616 microns
  Figure S6C, Mean: 1524.73
[3]; Distance 9.0934 microns
  Figure S6C, Mean: 1474.75

## COC(=O)[C@@H](NC(=O)[C@H](CCC(=O)OC(C)(C)C)NC(=O)[C@H](CC(C)C)NC(=O)[C@@H]1CCCN1C(=O)OCc1ccccc1)C(C)C [PW 164] (Cbz-PLE(OtBu)V-OMe)
[4]; Time (h) 0.5
  Paw withdrawal latency: 6.8 s and 5.5 s (2×) and 2.93 s and 6.4 s and 5.33 s and 6.3 s and 4.8 s and 4.23 s and 4.87 s and 3.47 s and 5.6 s and 4.1 s and 4.4 s and 2.87 s and 8.3 s and 5.93 s and 5 s and 4.2 s and 6.1 s
[4]; Time (h) 1
  Paw withdrawal latency: 11.43 s and 10.43 s and 13.57 s and 12.1 s and 12.5 s and 12.33 s and 11.6 s and 11.33 s and 13.2 s and 15.4 s and 16 s and 12.63 s and 16.3 s and 11.83 s and 17.37 s and 20 s and 12.8 s and 12.17 s and 18.37 s and 16.47 s
[4]; Time (h) 1.5
  Paw withdrawal latency: 12.6 s and 12.77 s and 10.5 s and 11.3 s and 13.4 s and 7.9 s and 8 s and 9.27 s and 11.73 s and 9.97 s and 16.43 s and 14.37 s and 15.37 s and 12.23 s and 13.13 s and 18.63 s and 15.2 s and 17.17 s and 10.23 s and 9.23 s
[4]; Time (h) 2.5
  Paw withdrawal latency: 12.63 s and 12.73 s and 10.73 s and 10.97 s and 13.83 s and 8.87 s and 8.63 s and 9.6 s and 15.4 s and 19.5667 s and 15.7667 s and 13.6 s and 14.9333 s (2×) and 14.7333 s and 11.4667 s and 11.1333 s and 10.5667 s and 15.1 s and 13.2 s
[4]; Time (h) BN (baseline)
  Paw withdrawal latency: 12.77 s and 12 s and 12.53 s and 10.8 s and 11.1 s and 12.43 s and 10.77 s (2×) and 12.33 s (2×) and 12.47 s (2×) and 14.53 s and 12.9 s and 11.27 s (2×) and 13.5 s and 11.07 s and 12.6 s and 10.67 s

B1: Nav1.7 CTD (fragment used in surface plasmon resonance) (domain or fragment)
chain: QEDVSATVIQRAYRRYRLRQNVK
modifications: synthetic peptide from supplementary SPR methods (stated as residues 1876-1899, 23 aa); used unconjugated as analyte over immobilized FGF13, and biotinylated (biotin position not stated) when …
[5]
  Kd: 75 ± 3 nM
